{
  "source": "PubChem BioAssay AID1259409",
  "about": "(Chemical Carcinogenesis Research Information System (CCRIS), 2018)",
  "origin": "cited, not measured here",
  "tested_on": "rodent chemically induced tumor inhibition, incidence and multiplicity",
  "test": "CCRIS tumor inhibitor studies",
  "note": "Where “and” joins values, the source holds several entries; their conditions need not be identical. Equal values may be shown once. Where a SMILES comes first, the peptide text is derived from it.",
  "data": [
    {"smiles": "II", "values": [
      {"measurement": "outcome", "setting": "Carcinogen: N-METHYL-N-NITROSOUREA [684-93-5], Dose [Inhibitor]: 0.05% I2 IN DRINKING WATER, 2 WKS BEFORE CARCINOGEN AND FOR 26 WKS AFTER, Route [Inhibitor]: DRINKING WATER, Species: RAT, Strain/Sex: SPRAGUE-DAWLEY/FEMALE, Target Tissue: Type of Lesion: MAMMARY GLAND: CARCINOMA, Dose [Carcinogen]: 50 MG/KG BW ONCE AT 7 WKS OF AGE (IN SALINE SOLUTION)", "result": "8/11 (73%) vs 3/10 (30%) at 16 wks, p<0.05"},
      {"measurement": "outcome", "setting": "Carcinogen: N-Methyl-N- nitrosourea (684-93-5), Dose [Inhibitor]: 0, 0.05% in drinking water for a total of 18 wks, Route [Inhibitor]: Oral, Species: Rat, Strain/Sex: Sprague-Dawley, female, Target Tissue: Type of Lesion: Mammary gland, Dose [Carcinogen]: 50 mg, study duration 16 wks after carcinogen", "result": "100%, 62.5%, p<0.05"}
    ]},
    {"smiles": "CC1(C)O[C@H]2CC(=O)OC[C@]23[C@H]2CC[C@@]4(C)[C@H](c5ccoc5)OC(=O)[C@H]5O[C@]54[C@]2(C)C(=O)C[C@@H]13", "values": [
      {"measurement": "tumour outcome (control, treated, inhibition, significance)", "setting": "Carcinogen: AZOXYMETHANE, 25843-45-2, Dose [Inhibitor]: 0, 0.05% IN DIET FOR 35 WK BEGINNING 1 WK POST CARCINOGEN LAST DOSE (STUDY DURATION: 38 WK), Route [Inhibitor]: ORAL, Species: RAT, Strain/Sex: F344/MALE, Target Tissue: Type of Lesion: COLON: ADENOCARCINOMA, Dose [Carcinogen]: 20 MG/KG BW 1/WK FOR 2 WK", "result": "18/25 (72%), 1/16 (6%), 92%, p=0.00003 and 18/25 (72%), 2/16 (13%), 82%, p=0.0002"}
    ]},
    {"smiles": "COc1cc(/C=C/C(=O)OCCc2ccccc2)ccc1O", "values": [
      {"measurement": "tumour outcome (control, treated, inhibition, significance)", "setting": "Carcinogen: AZOXYMETHANE, 25843-45-2, Dose [Inhibitor]: 0, 750 PPM IN DIET FOR 56 WK BEGINNING 2 WK PRIOR TO CARCINOGEN TREATMENT (STUDY DURATION: 56 WK), Route [Inhibitor]: ORAL, Species: RAT, Strain/Sex: F344/MALE, Target Tissue: Type of Lesion: COLON: ADENOCARCINOMA, Dose [Carcinogen]: 15 MG/KG BW 1/WK FOR 2 WK, Promoter: NONE USED", "result": "81%, 43%, 47%, p<0.002"},
      {"measurement": "tumour outcome (control, treated, inhibition, significance)", "setting": "Carcinogen: AZOXYMETHANE, 25843-45-2, Dose [Inhibitor]: 0, 750 PPM IN DIET FOR 56 WK BEGINNING 2 WK PRIOR TO CARCINOGEN TREATMENT (STUDY DURATION: 56 WK), Route [Inhibitor]: ORAL, Species: RAT, Strain/Sex: F344/MALE, Target Tissue: Type of Lesion: EAR DUCT: TUMOR, Dose [Carcinogen]: 15 MG/KG BW 1/WK FOR 2 WK, Promoter: NONE USED", "result": "25%, 0%, 100%, p<0.02"},
      {"measurement": "tumour outcome (control, treated, inhibition, significance)", "setting": "Carcinogen: AZOXYMETHANE, 25843-45-2, Dose [Inhibitor]: 0, 750 PPM IN DIET FOR 56 WK BEGINNING 2 WK PRIOR TO CARCINOGEN TREATMENT (STUDY DURATION: 56 WK), Route [Inhibitor]: ORAL, Species: RAT, Strain/Sex: F344/MALE, Target Tissue: Type of Lesion: SMALL INTESTINE: INVASIVE ADENOCARCINOMA, Dose [Carcinogen]: 15 MG/KG BW 1/WK FOR 2 WK, Promoter: NONE USED", "result": "16%, 10%, 38%, not significant"}
    ]},
    {"smiles": "CCCCC(C)N=C=S", "note": "(stereo not drawn)", "values": [
      {"measurement": "tumour outcome (control, treated, inhibition, significance)", "setting": "Carcinogen: 4-(METHYLNITROSAMINO)-1-(3-PYRIDYL)-1-BUTANONE, 64091-91-4, Dose [Inhibitor]: 0, 1 UMOL ONCE 2 HR PRIOR TO CARCINOGEN DOSE (STUDY DURATION: 16 WK), Route [Inhibitor]: GAVAGE, Species: MOUSE, Strain/Sex: STRAIN-A/FEMALE, Target Tissue: Type of Lesion: LUNG: ADENOMA, Dose [Carcinogen]: 10 UMOL IN 0.1 ML SALINE ONCE, Promoter: NONE USED", "result": "100%, 70%, 30%, p<0.05"},
      {"measurement": "tumour outcome (control, treated, inhibition, significance)", "setting": "Carcinogen: 4-(METHYLNITROSAMINO)-1-(3-PYRIDYL)-1-BUTANONE, 64091-91-4, Dose [Inhibitor]: 0, 5 UMOL ONCE 2 HR PRIOR TO CARCINOGEN DOSE (STUDY DURATION: 16 WK), Route [Inhibitor]: GAVAGE, Species: MOUSE, Strain/Sex: STRAIN-A/FEMALE, Target Tissue: Type of Lesion: LUNG: ADENOMA, Dose [Carcinogen]: 10 UMOL IN 0.1 ML SALINE ONCE, Promoter: NONE USED", "result": "100%, 30%, 70%, p<0.05"}
    ]},
    {"smiles": "O=C(O)/C=C/c1ccccc1O", "values": [
      {"measurement": "tumour outcome (control, treated, inhibition, significance)", "setting": "Carcinogen: BENZO[A]PYRENE, 50-32-8, Dose [Inhibitor]: 0.03 MMOL/G OF DIET DAILY STARTING 7 D BEFORE AND CONTINUING THROUGH 3 D AFTER CARCINOGEN TREATMENT FOLLOWED BY OBSERVAT, Route [Inhibitor]: ORAL, Species: MOUSE, Strain/Sex: ICR/FEMALE, Target Tissue: Type of Lesion: FORESTOMACH: NEOPLASM, Dose [Carcinogen]: 1 MG IN 0.2 ML CORN OIL 2/WK FOR 4 WK, Promoter: NONE USED", "result": "100%, 100%, 0%, not significant"},
      {"measurement": "tumour outcome (control, treated, inhibition, significance)", "setting": "Carcinogen: BENZO[A]PYRENE, 50-32-8, Dose [Inhibitor]: 0.06 MMOL/G OF DIET DAILY STARTING 7 D BEFORE AND CONTINUING THROUGH 3 D AFTER CARCINOGEN TREATMENT FOLLOWED BY OBSERVAT, Route [Inhibitor]: ORAL, Species: MOUSE, Strain/Sex: ICR/FEMALE, Target Tissue: Type of Lesion: FORESTOMACH: NEOPLASM, Dose [Carcinogen]: 1 MG IN 0.2 ML CORN OIL 2/WK FOR 4 WK, Promoter: NONE USED", "result": "100%, 84%, 16%, not significant and 97%, 89%, 8%, not significant and 100%, 82%, 18%, not significant"}
    ]},
    {"smiles": "CC(C)[C@@H]1CC[C@@H](C)C[C@H]1O", "values": [
      {"measurement": "tumour outcome (control, treated, inhibition, significance)", "setting": "Carcinogen: AZOXYMETHANE, 25843-45-2, Dose [Inhibitor]: 0, 5 MG/G IN DIET FOR 22 WK BEGINNING 3 D POST LAST CARCINOGEN DOSE (STUDY DURATION: 25 WK), Route [Inhibitor]: ORAL, Species: RAT, Strain/Sex: F344/MALE, Target Tissue: Type of Lesion: DUODENUM: ADENOCARCINOMA, Dose [Carcinogen]: 15 MG/KG BW 2/WK FOR 3 WK, Promoter: NONE USED", "result": "50%, 42%, 16%, not significant"},
      {"measurement": "tumour outcome (control, treated, inhibition, significance)", "setting": "Carcinogen: AZOXYMETHANE, 25843-45-2, Dose [Inhibitor]: 0, 5 MG/G IN DIET FOR 22 WK BEGINNING 3 D POST LAST CARCINOGEN DOSE (STUDY DURATION: 25 WK), Route [Inhibitor]: ORAL, Species: RAT, Strain/Sex: F344/MALE, Target Tissue: Type of Lesion: LARGE BOWEL: ADENOMATOUS POLYP, Dose [Carcinogen]: 15 MG/KG BW 2/WK FOR 3 WK, Promoter: NONE USED", "result": "82%, 88%, -7%, not significant"}
    ]},
    {"smiles": "NCCCC[C@H](N)C(=O)N[C@@H](CCC(=O)O)C(=O)O", "note": "(H-Lys-Glu-OH)", "values": [
      {"measurement": "tumour outcome (control, treated, inhibition, significance)", "setting": "Carcinogen: N-BUTYL-N-(4-HYDROXYBUTYL)NITROSAMINE, 3817-11-6, Dose [Inhibitor]: 0, 30 UG/ANIMAL IN RIGHT THIGH DOES OF 1 UG/KG BW 1/D FOR 5 D WITH 4 WK INTERVALS FOR 6 MO (STUDY DURATION: 49 WK), Route [Inhibitor]: INTRAMUSCULAR, Species: RAT, Strain/Sex: ALBINO/MALE, Target Tissue: Type of Lesion: URINARY BLADDER: BENIGN TUMOR, Dose [Carcinogen]: 0.04% IN DRINKING WATER FOR FIRST 12 WK", "result": "13/49 (27%), 14/50 (28%), -4%, not calculated"},
      {"measurement": "tumour outcome (control, treated, inhibition, significance)", "setting": "Carcinogen: N-BUTYL-N-(4-HYDROXYBUTYL)NITROSAMINE, 3817-11-6, Dose [Inhibitor]: 0, 30 UG/ANIMAL IN RIGHT THIGH DOES OF 1 UG/KG BW 1/D FOR 5 D WITH 4 WK INTERVALS FOR 6 MO (STUDY DURATION: 49 WK), Route [Inhibitor]: INTRAMUSCULAR, Species: RAT, Strain/Sex: ALBINO/MALE, Target Tissue: Type of Lesion: URINARY BLADDER: IN SITU CARCINOMA, Dose [Carcinogen]: 0.04% IN DRINKING WATER FOR FIRST 12 WK", "result": "11/49 (22%), 4/50 (8%), 64%, not calculated"}
    ]},
    {"smiles": "Cc1cc(NC(=O)[C@H](CCCN=C(N)N)NC(=O)[C@H](CO)NC(=O)[C@H](Cc2ccccc2)NC(=O)OC(C)(C)C)cc2oc(=O)ccc12", "values": [
      {"measurement": "tumour outcome (control, treated, inhibition, significance)", "setting": "Carcinogen: 1,2-DIMETHYLHYDRAZINE, 540-73-8, Dose [Inhibitor]: 0, 2429 UG/G IN DIET FOR 32 WK BEGINNING AT 24 D OF AGE (STUDY DURATION: 32 WK), Route [Inhibitor]: ORAL, Species: RAT, Strain/Sex: SPRAGUE-DAWLEY/MALE, Target Tissue: Type of Lesion: COLON: ADENOCARCINOMA, Dose [Carcinogen]: 20 MG/KG 1/WK FOR 15 WK BEGINNING ON D 37, Promoter: NONE USED", "result": "19/22 (86%), 11/16 (69%), 20%, not calculated"},
      {"measurement": "tumour outcome (control, treated, inhibition, significance)", "setting": "Carcinogen: 1,2-DIMETHYLHYDRAZINE, 540-73-8, Dose [Inhibitor]: 0, 2429 UG/G IN DIET FOR 32 WK BEGINNING AT 24 D OF AGE (STUDY DURATION: 32 WK), Route [Inhibitor]: ORAL, Species: RAT, Strain/Sex: SPRAGUE-DAWLEY/MALE, Target Tissue: Type of Lesion: SMALL INTESTINE: ADENOCARCINOMA, Dose [Carcinogen]: 20 MG/KG 1/WK FOR 15 WK BEGINNING ON D 37, Promoter: NONE USED", "result": "18/22 (82%), 10/16 (63%), 23%, not calculated"}
    ]},
    {"smiles": "CC/C=C\\C/C=C\\C/C=C\\CCCCCCCC(=O)O", "values": [
      {"measurement": "tumour outcome (control, treated, inhibition, significance)", "setting": "Carcinogen: 7,12-DIMETHYLBENZ[A]ANTHRACENE, 57-97-6, Dose [Inhibitor]: 0, 16 NMOL IN 0.1 ML ACETONE 2/WK FOR 20 WK APPLIED 40 MIN PRIOR TO EACH PROMOTER DOSE (STUDY DURATION: 21 WK), Route [Inhibitor]: DERMAL, Species: MOUSE, Strain/Sex: ICR/FEMALE, Target Tissue: Type of Lesion: SKIN: TUMOR, Dose [Carcinogen]: 0.19 UMOL IN 0.1 ML ACETONE ONCE, Promoter: 12-O-TETRADECANOYLPHORBOL-13-ACETATE, 16561-29-8", "result": "87%, 80%, 8%, not significant"},
      {"measurement": "tumour outcome (control, treated, inhibition, significance)", "setting": "Carcinogen: 7,12-DIMETHYLBENZ[A]ANTHRACENE, 57-97-6, Dose [Inhibitor]: 0, 160 NMOL IN 0.1 ML ACETONE 2/WK FOR 20 WK APPLIED 40 MIN PRIOR TO EACH PROMOTER DOSE (STUDY DURATION: 21 WK), Route [Inhibitor]: DERMAL, Species: MOUSE, Strain/Sex: ICR/FEMALE, Target Tissue: Type of Lesion: SKIN: TUMOR, Dose [Carcinogen]: 0.19 UMOL IN 0.1 ML ACETONE ONCE, Promoter: 12-O-TETRADECANOYLPHORBOL-13-ACETATE, 16561-29-8", "result": "87%, 47%, 46%, p<0.005"}
    ]}
  ]
}
